The source of these data is ChEMBL document CHEMBL1201862, “PubChem BioAssay data set” (2004).

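48-hour exposure; five concentrations; linearly interpolated endpoints. GI50 is the concentration that inhibits growth by half.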 The source made the active and inactive calls. No stated cut-off is given here; in the data, active = GI50 up to about 1.1 µM and inactive = higher. Bounds are passed on as bounds.

Among the test systems are EKVX; K562; OVCAR-3; HT-29; M14; SNB-19; SF-268; SK-MEL-5; CCRF-CEM; A549; MOLT-4; LXFL 529; HOP-92; ACHN; DU-145; SR; T47D; MCF7; MDA-MB-231; BT-549.
Common to all, as to experiment: inhibition of tumour cell growth, NCI panel, 48 h

Turning to `COc1cc(CNc2nc3ccc(C(F)(F)F)cc3nc2-c2ccccc2)cc(OC)c1OC`, the GI50 was 11.9 µM (inactive) with EKVX; 18.6 µM (inactive) in the experiment with K562; 26.4 µM (inactive) in the experiment on OVCAR-3; 32.9 µM (inactive) in the experiment with HT-29; 40 µM (inactive) with M14; 65.8 µM (inactive) with SNB-19. Besides, the GI50 in the experiment on SF-268 is 19.5 µM (inactive); in the experiment with SK-MEL-5, 18.7 µM (inactive); in the experiment with CCRF-CEM it was 15.3 µM (inactive); in the experiment on A549 it was 20 µM (inactive); with MOLT-4, 4.4 µM (inactive); in the experiment on LXFL 529, 24.8 µM (inactive).

On to `NC(=O)CN(CC(N)=O)C(N)=O`, for which the GI50 with EKVX, with K562, with OVCAR-3, in the experiment on HT-29, with M14 and in the experiment with HOP-92 was > 100 µM (inactive) in each case. Further, the GI50 in the experiment with SNB-19, in the experiment with ACHN, with SF-268, in the experiment on SK-MEL-5, with CCRF-CEM and in the experiment with A549 was > 100 µM (inactive) in each case. In addition, the GI50 in the experiment with MOLT-4 and in the experiment on LXFL 529 was > 100 µM (inactive) throughout.

Turning to `COc1cc(Br)c(C2OCCCO2)cc1OCc1ccccc1`, the GI50 in the experiment on EKVX was > 100 µM (inactive); with K562, 53.2 µM (inactive); in the experiment with OVCAR-3, 47.2 µM (inactive); in the experiment on HT-29 it was > 100 µM (inactive); with M14 it was 67.9 µM (inactive); in the experiment with HOP-92, 9.86 µM (inactive). Besides, the GI50 was > 100 µM (inactive) with SNB-19; 37.9 µM (inactive) with ACHN; 39 µM (inactive) in the experiment on SF-268; 46.3 µM (inactive) in the experiment with SK-MEL-5; 94.2 µM (inactive) in the experiment on CCRF-CEM; 73.5 µM (inactive) in the experiment on A549. In addition, the results for the GI50 with MOLT-4 and in the experiment with LXFL 529 were 41.6 µM (inactive) and 48.2 µM (inactive), respectively.

For the compound `CNC(=O)N(CCCCC(NC(C)=O)C(=O)NCc1ccccc1)Cc1ccccc1` (stereo not given), the GI50 with EKVX, in the experiment with K562, in the experiment with OVCAR-3, in the experiment with HT-29, with M14 and with HOP-92 was > 100 µM (inactive) each time. Besides, the GI50 in the experiment on SNB-19, in the experiment with ACHN, in the experiment with SF-268, in the experiment with SK-MEL-5, in the experiment on CCRF-CEM and in the experiment on A549 was > 100 µM (inactive) throughout. Besides, the GI50 with MOLT-4 and in the experiment with LXFL 529 was > 100 µM (inactive) throughout.

In the case of `C=C1C(=O)O[C@@H]2/C=C(/C)[C@@H](OC(C)=O)C/C=C(\C)C(O)[C@@H](OC(=O)/C(C)=C\C)C12` (stereo not given in full), the GI50 is 32.1 µM (inactive) with EKVX; 43.7 µM (inactive) in the experiment with DU-145; 17.3 µM (inactive) with SR; 22.6 µM (inactive) in the experiment with K562; 19.6 µM (inactive) in the experiment on T47D; 35.7 µM (inactive) with OVCAR-3. Also, the GI50 in the experiment on HT-29 was 20.6 µM (inactive); in the experiment with MCF7, 27.6 µM (inactive); in the experiment on MDA-MB-231, 19.1 µM (inactive); with M14 it was 33.1 µM (inactive); in the experiment on HOP-92, 22.1 µM (inactive); with BT-549 it was 20.1 µM (inactive). In addition, the GI50 is > 100 µM (inactive) with SNB-19; 18.7 µM (inactive) with ACHN; 38.3 µM (inactive) in the experiment on SF-268; 15.8 µM (inactive) in the experiment with SK-MEL-5; 9.53 µM (inactive) in the experiment with CCRF-CEM; 95.7 µM (inactive) in the experiment with A549. Also, the GI50 in the experiment on MOLT-4 is 21.1 µM (inactive).

In the case of `CCOC(=O)CC[C@H](N)C(=O)N[C@@H](Cc1ccc(N(CCCl)CCCl)cc1)C(=O)OCC`, the GI50 was 2.3 µM (inactive) with EKVX; 0.324 µM (active) in the experiment on DU-145; < 0.0201 µM (active) in the experiment with SR; 0.895 µM (active) with K562; 0.718 µM (active) in the experiment with T47D; 0.652 µM (active) in the experiment on OVCAR-3. Further, the GI50 in the experiment with HT-29 was 1.1 µM (active); in the experiment with MCF7 it was 0.483 µM (active); with MDA-MB-231, 1.94 µM (inactive); in the experiment on M14 it was 0.261 µM (active); in the experiment with HOP-92, 0.475 µM (active); in the experiment on BT-549 it was 7.83 µM (inactive). The GI50 with SNB-19 is 4.69 µM (inactive); in the experiment with ACHN, < 0.0348 µM (active); in the experiment on SF-268, 0.711 µM (active); in the experiment with SK-MEL-5, 1.5 µM (inactive); in the experiment on CCRF-CEM it was < 0.0308 µM (active); with A549 it was 2.73 µM (inactive). Further, in the experiment on MOLT-4, the GI50 was 0.0345 µM (active).

For the compound `Nc1ccc(Oc2ccc(C34CC5CC6C3CC3CC4C(C5)C6(c4ccc(Oc5ccc(N)c(O)c5)cc4)C3)cc2)cc1O`, the GI50 in the experiment with EKVX was 1.79 µM (inactive); with DU-145, 4.73 µM (inactive); with SR, 1.62 µM (inactive); in the experiment with K562, 2.79 µM (inactive); with T47D, 0.652 µM (active); in the experiment on OVCAR-3, 1.47 µM (inactive). The GI50 with HT-29 is 3.59 µM (inactive); in the experiment with MCF7, 4.55 µM (inactive); in the experiment on MDA-MB-231, 3.75 µM (inactive); with M14, 2.27 µM (inactive); in the experiment with HOP-92, 1.35 µM (inactive); with BT-549 it was 1.15 µM (inactive). For the same compound, the GI50 with SNB-19 was 3.57 µM (inactive); in the experiment on ACHN it was 2.44 µM (inactive); in the experiment with SF-268, 3.33 µM (inactive); in the experiment on SK-MEL-5 it was 2.96 µM (inactive); in the experiment on CCRF-CEM it was 3.33 µM (inactive); with A549, 1.9 µM (inactive). Also, in the experiment with MOLT-4, the GI50 is 2.29 µM (inactive).

With `C1CSCCSCCCS[C@@H]2CCCCC2SC1` (stereo not given in full), the GI50 was > 100 µM (inactive) in the experiment with EKVX; 24.3 µM (inactive) in the experiment with K562; > 100 µM (inactive) in the experiment with OVCAR-3; > 100 µM (inactive) in the experiment on HT-29; > 100 µM (inactive) with M14; 65.2 µM (inactive) in the experiment on HOP-92. The GI50 was > 100 µM (inactive) in the experiment on SNB-19; > 100 µM (inactive) with ACHN; > 100 µM (inactive) in the experiment on SF-268; > 100 µM (inactive) with SK-MEL-5; 20.8 µM (inactive) in the experiment with CCRF-CEM; > 100 µM (inactive) in the experiment on A549. In the experiment on LXFL 529, the GI50 was > 100 µM (inactive).

With `O=C(NCCCN1CCN(CCCNC(=O)c2cnc3ccccc3n2)CC1)c1cnc2ccccc2n1`, the GI50 is > 100 µM (inactive) in the experiment with EKVX; > 100 µM (inactive) in the experiment with K562; > 100 µM (inactive) in the experiment on OVCAR-3; 88.3 µM (inactive) in the experiment with HT-29; > 100 µM (inactive) in the experiment on M14; > 100 µM (inactive) in the experiment with SNB-19. Further, the GI50 in the experiment with ACHN is 74.1 µM (inactive); in the experiment on SF-268, > 100 µM (inactive); in the experiment with SK-MEL-5 it was > 100 µM (inactive); with CCRF-CEM, > 100 µM (inactive); with A549 it was > 100 µM (inactive); in the experiment on MOLT-4, 44.8 µM (inactive). Moreover, in the experiment with LXFL 529, the GI50 is > 100 µM (inactive).

In the case of `O=C1O[C@@H](c2ccccc2)C[C@@H]1CN1CCOCC1`, the GI50 in the experiment with EKVX, in the experiment with K562, in the experiment on OVCAR-3, in the experiment with HT-29, in the experiment with M14 and in the experiment on HOP-92 was > 100 µM (inactive) each time. The GI50 in the experiment with ACHN, in the experiment on SF-268, in the experiment on SK-MEL-5, with CCRF-CEM, in the experiment on A549 and in the experiment with MOLT-4 was > 100 µM (inactive) each time. The GI50 with LXFL 529 was > 100 µM (inactive).

Regarding `Cc1ccc(-c2n[nH]c(=O)n2N)cc1`, the GI50 in the experiment with EKVX, in the experiment on DU-145, with SR, in the experiment on K562, in the experiment with T47D and with OVCAR-3 was > 100 µM (inactive) throughout. In addition, the GI50 in the experiment with HT-29, with MCF7, in the experiment with MDA-MB-231, in the experiment on M14, with HOP-92 and in the experiment with BT-549 was > 100 µM (inactive) in each case. Besides, the GI50 in the experiment on SNB-19, in the experiment with ACHN, with SF-268, in the experiment on SK-MEL-5, with CCRF-CEM and in the experiment with A549 was > 100 µM (inactive) each time. The GI50 in the experiment on MOLT-4 is > 100 µM (inactive).

For the compound `CC(=O)O[C@H]1CCC2[C@@H]3CCC4Nc5c(cnn5-c5ccccc5)C[C@]4(C)C3CC[C@@]21C` (stereo not given in full), the GI50 in the experiment on EKVX is 3.3 µM (inactive); with K562, 12.6 µM (inactive); in the experiment with OVCAR-3, 6.92 µM (inactive); in the experiment on HT-29 it was 8.24 µM (inactive); in the experiment on M14 it was 14.4 µM (inactive); with SNB-19 it was 14.5 µM (inactive). Besides, the GI50 in the experiment on ACHN was 14.6 µM (inactive); in the experiment with SF-268, 32.5 µM (inactive); in the experiment with SK-MEL-5, 7.94 µM (inactive); in the experiment on CCRF-CEM, 7.08 µM (inactive); in the experiment on A549, 17.5 µM (inactive); in the experiment on MOLT-4, 6.93 µM (inactive). Besides, the GI50 in the experiment with LXFL 529 was 12.6 µM (inactive).

For `CCc1ccccc1-n1c2nc(=O)n(C)c(=O)c-2nc2ccccc21`, the GI50 with EKVX was 12.1 µM (inactive); in the experiment with K562, 12.1 µM (inactive); with OVCAR-3, 2.49 µM (inactive); in the experiment on HT-29, 3.63 µM (inactive); in the experiment with M14, 6.59 µM (inactive); with SNB-19, 10.8 µM (inactive). Further, the GI50 with ACHN is 3.92 µM (inactive); with SF-268 it was 11 µM (inactive); with SK-MEL-5 it was 4.29 µM (inactive); in the experiment on CCRF-CEM, 11.2 µM (inactive); in the experiment on A549, 8.24 µM (inactive); in the experiment with MOLT-4 it was 13.2 µM (inactive). The GI50 in the experiment with LXFL 529 is 11.1 µM (inactive).
